Measurements as given in ChEMBL document CHEMBL4602619, “Covalent inactivation of Mycobacterium thermoresistibile inosine-5'-monophosphate dehydrogenase (IMPDH)” (Bioorg Med Chem Lett, 2020).
Calls of active or inactive are those of the source. The rule behind the calls is not given here.

System: Mycobacterium thermoresistibile
Experiment: Covalent binding affinity to Mycobacterium thermoresistibile IMPDH deltaCBS variant assessed as adduct formation at Cys341 by measuring 330 Da shift of increment in protein mass measured under denaturing conditions by ESI-MS spectral analysis

SMILES: O=P(O)(O)OC[C@H]1O[C@@H](n2cnc3c(Cl)ncnc32)[C@H](O)[C@@H]1O
- Activity: Active
